Measured values from EP2226323A1, “New tetrahydropyrazolo[3,4-c]isoquinolin-5-amine derivatives” (Almirall, S.A., priority 2009, dated 2010).

biological target: recombinant PDE4 enzyme; assay: PDE4 assay: [3H] cAMP Scintillation Proximity Assay (SPA) of phosphodiesterase activity; assay type: biochemical; details: yeast extract of recombinant PDE4 enzyme; 30 nM [3H] cAMP; 1 hr at room temperature; pH 7.5
Protocol: Measurement of Phosphodiesterase Activity was done using a [3H] cAMP Scintillation Proximity Assay (SPA) (GE Healthcare). Compounds to be tested were dissolved in DMSO at a stock concentration of 1 mM and serial dilutions were prepared in 50% DMSO to determine IC50s. The reactions were conducted in 96-well plates (Corning, Ref.3604) at room temperature, in 0.1 ml of reaction buffer containing (final concentrations): 50 mM Tris-HCl, pH 7.5, 8.3 mM MgCl2, 1.7 mM EGTA, 30 nM [3H] cAMP (approximately 150000 dpm/well) with or without the inhibitors. The reaction was initiated by adding yeast extract of recombinant PDE4 enzyme. Plates were shaken for 1 hr at room temperature and the incubation was terminated by adding 50 µl (0.5 mg /well) of SPA yttrium silicate beads (RPNQ 0150; GE Healthcare) in the presence of zinc sulfate. Plates were stored overnight in the dark and read on a TRILUX microtiter plate reader (Perkin Elmer).

| Molecule | IC50 [nM] |
| --- | --- |
| Methyl 3-((5-(3,5-dichloropyridin-4-ylamino)-1-hydroxy-8,8-dimethyl-6,7,8,9-tetrahydro-3H-pyrazolo[3,4-c]isoquinolin-3-yl)methyl)benzoate [Example 6] | 2 |
| CC1(C)CCc2c(Nc3c(Cl)cncc3Cl)nc3[nH]nc(N)c3c2C1 [Example 2, N^5-(3,5-Dichloropyridin-4-yl)-8,8-dimethyl-6,7,8,9-tetrahydro-3H-pyrazolo[3,4-c]isoquinoline-1,5-diamine] | 62 |
| CC1(C)CCc2c(Nc3c(Cl)cncc3Cl)nc3c(c(O)nn3CC(N)=O)c2C1 [Example 9, 2-(5-(3,5-Dichloropyridin-4-ylamino)-1-hydroxy-8,8-dimethyl-6,7,8,9-tetrahydro-3H-pyrazolo[3,4-c]isoquinolin-3-yl)acetamide] | 18.8 |
| CC1(C)CCc2c(Nc3c(Cl)cncc3Cl)nc3c(c(O)nn3Cc3cccnc3)c2C1 [Example 8, 5-(3,5-Dichloropyridin-4-ylamino)-8,8-dimethyl-3-(pyridin-3-ylmethyl)-6,7,8,9-tetrahydro-3H-pyrazolo[3,4-c]isoquinolin-1-ol] | 7.4 |
| CC1(C)CCc2c(Nc3c(Cl)cncc3Cl)nc3c(c(O)nn3Cc3cccc(C(=O)O)c3)c2C1 [Example 7, 3-((5-(3,5-Dichloropyridin-4-ylamino)-1-hydroxy-8,8-dimethyl-6,7,8,9-tetrahydro-3H-pyrazolo[3,4-c]isoquinolin-3-yl)methyl)benzoic acid] | 3.1 |
| CC1(C)CCc2c(Nc3c(Cl)cncc3Cl)nc3[nH]nc(O)c3c2C1 [Example 1, 5-(3,5-Dichloropyridin-4-ylamino)-8,8-dimethyl-6,7,8,9-tetrahydro-3H-pyrazolo[3,4-c]isoquinolin-1-ol] | 3.9 |
| CN(C)C(=O)c1cccc(S(=O)(=O)n2nc(O)c3c4c(c(Nc5c(Cl)cncc5Cl)nc32)CCC(C)(C)C4)c1 [Example 3, 3-(5-(3,5-Dichloropyridin-4-ylamino)-1-hydroxy-8,8-dimethyl-6,7,8,9-tetrahydro-3H-pyrazolo[3,4-c]isoquinolin-3-ylsulfonyl)-N, N-dimethylbenzamide] | 16.8 |
| COc1cccc(Cn2nc(O)c3c4c(c(Nc5c(Cl)cncc5Cl)nc32)CCC(C)(C)C4)c1 [Example 4, 5-(3,5-Dichloropyridin-4-ylamino)-3-(3-methoxybenzyl)-8,8-dimethyl-6,7,8,9-tetrahydro-3H-pyrazolo[3,4-c]isoquinolin-1-ol] | 11 |
| Cn1nc(O)c2c3c(c(Nc4c(Cl)cncc4Cl)nc21)CCC(C)(C)C3 [Example 5, 5-(3,5-Dichloropyridin-4-ylamino)-3,8,8-trimethyl-6,7,8,9-tetrahydro-3H-pyrazolo[3,4-c]isoquinolin-1-ol] | 17.1 |

Second part, the molecule after the results:

| IC50 [nM] | Molecule |
| --- | --- |
| 6.14 | CC1(C)CCc2c(Nc3c(Cl)cncc3Cl)nc3c(c(O)nn3CCCN3CCOCC3)c2C1 [Example 15, 5-(3,5-Dichloropyridin-4-ylamino)-8,8-dimethyl-3-(3-morpholinopropyl)-6,7,8,9-tetrahydro-3H-pyrazolo[3,4-c]isoquinolin-1-ol] |
| 2.35 | CC1(C)CCc2c(Nc3c(Cl)cncc3Cl)nc3c(c(O)nn3Cc3cccc(C#N)c3)c2C1 [Example 13, 3-((5-(3,5-Dichloropyridin-4-ylamino)-1-hydroxy-8,8-dimethyl-6,7,8,9-tetrahydro-3H-pyrazolo[3,4-c]isoquinolin-3-yl)methyl)benzonitrile] |
| 5.17 | CC1(C)CCc2c(Nc3c(Cl)cncc3Cl)nc3c(c(O)nn3Cc3ccc(C(N)=O)cc3)c2C1 [Example 14, 4-((5-(3,5-Dichloropyridin-4-ylamino)-1-hydroxy-8,8-dimethyl-6,7,8,9-tetrahydro-3H-pyrazolo[3,4-c]isoquinolin-3-yl)methyl)benzamide] |
| 2.3 | CC1(C)CCc2c(Nc3c(Cl)cncc3Cl)nc3c(c(O)nn3Cc3cccc(C(N)=O)c3)c2C1 [Example 10, 3-((5-(3,5-Dichloropyridin-4-ylamino)-1-hydroxy-8,8-dimethyl-6,7,8,9-tetrahydro-3H-pyrazolo[3,4-c]isoquinolin-3-yl)methyl)benzamide] |
| 15.5 | CC1(C)CCc2c(Nc3c(Cl)cncc3Cl)nc3c(c(O)nn3CCCc3cccc(C#N)c3)c2C1 [Example 16, 3-(3-(5-(3,5-Dichloropyridin-4-ylamino)-1-hydroxy-8,8-dimethyl-6,7,8,9-tetrahydro-3H-pyrazolo[3,4-c]isoquinolin-3-yl)propyl)benzonitrile] |
| 2.1 | CC1(C)CCc2c(Nc3c(Cl)cncc3Cl)nc3c(c(O)nn3CCCc3cccc(C(N)=O)c3)c2C1 [Example 17, 3-(3-(5-(3,5-Dichloropyridin-4-ylamino)-1-hydroxy-8,8-dimethyl-6,7,8,9-tetrahydro-3H-pyrazolo[3,4-c]isoquinolin-3-yl)propyl)benzamide] |
| 2.4 | CC1(C)CCc2c(Nc3c(Cl)cncc3Cl)nc3c(c(O)nn3Cc3ccc(C(=O)O)cc3)c2C1 [Example 12, 4-((5-(3,5-Dichloropyridin-4-ylamino)-1-hydroxy-8,8-dimethyl-6,7,8,9-tetrahydro-3H-pyrazolo[3,4-c]isoquinolin-3-yl)methyl)benzoic acid] |
